The text below walks through data of article PMC3365486 (Behavioural Pharmacology, 2012).

The subject of experiment [1] is rats trained to discriminate 5.6 mg/kg cocaine from saline. Conditions: rat, in vivo; for maximum cocaine-appropriate responding: sc.
The test system of experiment [2] is rats trained to self-administer cocaine. Put plainly: Fixed ratio. In kind it is in vivo, rat. Conditions: for FR5 responding when substituted for cocaine, relative to saline: cocaine and 7-OH-DPAT 0.032–1.0, PF-592,379 0.01–1.0 mg/kg/inj i.v., n=6.
Experiment [3] addresses T1, recombinant human D4 receptors (Homo sapiens, UniProt P21917).
T1 sequence (P21917 1-419): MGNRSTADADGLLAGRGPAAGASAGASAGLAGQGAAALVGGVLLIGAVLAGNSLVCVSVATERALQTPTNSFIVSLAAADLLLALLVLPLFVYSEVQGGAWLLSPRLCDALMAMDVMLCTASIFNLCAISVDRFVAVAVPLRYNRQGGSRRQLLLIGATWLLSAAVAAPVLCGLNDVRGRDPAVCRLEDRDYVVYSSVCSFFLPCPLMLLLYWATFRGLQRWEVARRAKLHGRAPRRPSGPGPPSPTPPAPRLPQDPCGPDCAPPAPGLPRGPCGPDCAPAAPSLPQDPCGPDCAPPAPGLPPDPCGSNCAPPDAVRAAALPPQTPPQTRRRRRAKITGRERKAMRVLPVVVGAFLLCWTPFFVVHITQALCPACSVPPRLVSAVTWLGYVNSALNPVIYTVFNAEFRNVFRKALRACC
Description: Inhibition of forskolin-stimulated cAMP accumulation in intact CHO cells. In kind it is cell-based. Conditions: read-out: in vitro Functional Activity EC50, hD4, geometric mean (95%CI).

Experiment [4] concerns the target T1, recombinant human D4 receptors. Description: In vitro competition binding, [3H]spiperone, CHO cell membranes. Conditions: read-out: in vitro Binding Affinity Ki, hD4, geometric mean (95%CI).
Experiment [5] concerns drug-naïve rats. Description: Acquisition of IV self-administration under FR1 in drug-naïve rats. It is filed as in vivo, rat. Conditions: for % Met, Both Criteria Met / % Met, criterion ≥ 15 Injections per Session / % Met, criterion ≥ 70% Active Lever Selection: FR1, 18 sessions, n=7.
For experiment [6], the system named is rats. Description: Locomotor activity observed at large doses. In kind it is in vivo, rat. Conditions: PF-592,379 doses as large as 32.0 mg/kg.
The subject of experiment [7] is rats trained to self-administer cocaine. Put plainly: Progressive ratio. It is filed as in vivo, rat. Conditions: for Total Injections / Total Responses / Final Ratio Achieved: maximally effective dose (cocaine 1.0, 7-OH-DPAT 0.32, PF-592,379 0.1 mg/kg/inf), mean (SEM); for PR responding when substituted for cocaine, relative to saline: cocaine 0.032–1.0, 7-OH-DPAT and PF-592,379 0.1–1.0 mg/kg/inj.

Experiment [8] has as its target T2, recombinant human D3 receptors (Homo sapiens, UniProt P35462). Put plainly: Inhibition of forskolin-stimulated cAMP accumulation in intact CHO cells. In kind it is cell-based.
The target of experiment [9] is recombinant human D1 receptors (Homo sapiens, UniProt P21728). Description: In vitro competition binding, [3H]SCH23390, CHO cell membranes.
The target in experiment [10] is T2, recombinant human D3 receptors. Description: In vitro competition binding, [3H]spiperone, CHO cell membranes. Conditions: no binding up to 10 µM.
For experiment [11], the target named is recombinant human D2 receptors (Homo sapiens, UniProt P14416). Put plainly: In vitro competition binding, [3H]U-86170, CHO cell membranes.
The target in experiment [12] is recombinant human D5 receptors (Homo sapiens, UniProt P21918). Put plainly: In vitro competition binding, [3H]SCH23390, CHO cell membranes.
Experiment [13] has as its target T2, recombinant human D3 receptors. Conditions: cAMP accumulation; ref Attkins et al., 2010; cited from earlier work.
The subject of experiment [14] is D3 receptor. Conditions: ref Millan et al., 2002; cited from earlier work.
For experiment [15], the system named is D3 or D2 receptor. Conditions: ref Collins et al., 2007; cited from earlier work.
For experiment [16], the system named is D2 receptor. Conditions: ref McCall et al., 2005; cited from earlier work.
[17] abbreviates: 0.32 mg/kg per injection IV, FR1.

Each structure is given as a SMILES string. “And” between values parts separate entries of the source, which are not always exact repeats. Equal values may be shown once. Where a name gives a salt, the structure may show the parent alone. Marks after values point to notes of the source that are not given here.

T2 sequence (P35462 whole entry): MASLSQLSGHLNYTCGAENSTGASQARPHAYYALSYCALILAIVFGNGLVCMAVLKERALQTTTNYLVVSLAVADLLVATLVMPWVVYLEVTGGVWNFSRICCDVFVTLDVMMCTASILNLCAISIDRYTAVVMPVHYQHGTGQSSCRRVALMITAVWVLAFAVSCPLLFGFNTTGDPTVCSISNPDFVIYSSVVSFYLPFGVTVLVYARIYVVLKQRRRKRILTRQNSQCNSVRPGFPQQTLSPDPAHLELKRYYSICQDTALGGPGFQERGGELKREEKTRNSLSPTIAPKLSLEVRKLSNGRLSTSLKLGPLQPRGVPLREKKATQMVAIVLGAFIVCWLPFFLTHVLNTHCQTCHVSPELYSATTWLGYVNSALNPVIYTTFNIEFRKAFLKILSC
Chain of recombinant human D2 receptors (P14416 whole entry): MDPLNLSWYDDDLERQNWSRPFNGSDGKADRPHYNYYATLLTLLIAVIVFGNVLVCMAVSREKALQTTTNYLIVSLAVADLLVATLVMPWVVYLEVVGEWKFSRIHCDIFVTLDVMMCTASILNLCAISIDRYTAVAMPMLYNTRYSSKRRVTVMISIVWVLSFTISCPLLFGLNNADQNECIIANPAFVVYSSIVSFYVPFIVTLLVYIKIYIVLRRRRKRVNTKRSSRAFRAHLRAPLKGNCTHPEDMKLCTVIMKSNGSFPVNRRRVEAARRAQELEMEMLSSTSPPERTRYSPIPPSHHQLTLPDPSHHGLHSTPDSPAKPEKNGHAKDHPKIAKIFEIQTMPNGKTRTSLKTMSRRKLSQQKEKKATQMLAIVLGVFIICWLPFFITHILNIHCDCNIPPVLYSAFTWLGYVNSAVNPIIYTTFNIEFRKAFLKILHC
Chain of recombinant human D5 receptors (P21918 whole entry): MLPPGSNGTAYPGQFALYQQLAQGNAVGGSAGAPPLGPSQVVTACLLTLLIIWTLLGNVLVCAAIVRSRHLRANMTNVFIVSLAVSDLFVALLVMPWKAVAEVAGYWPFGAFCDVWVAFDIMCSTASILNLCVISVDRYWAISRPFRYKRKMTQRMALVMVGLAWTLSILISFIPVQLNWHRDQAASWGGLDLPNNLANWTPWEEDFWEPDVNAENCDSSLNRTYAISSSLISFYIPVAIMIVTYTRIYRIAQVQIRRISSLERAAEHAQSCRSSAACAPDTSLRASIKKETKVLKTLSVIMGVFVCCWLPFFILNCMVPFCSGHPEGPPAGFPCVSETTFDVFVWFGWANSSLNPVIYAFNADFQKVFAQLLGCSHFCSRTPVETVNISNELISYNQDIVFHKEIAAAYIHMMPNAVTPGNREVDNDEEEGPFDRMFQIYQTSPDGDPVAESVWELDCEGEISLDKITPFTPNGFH
Chain of recombinant human D1 receptors (P21728 whole entry): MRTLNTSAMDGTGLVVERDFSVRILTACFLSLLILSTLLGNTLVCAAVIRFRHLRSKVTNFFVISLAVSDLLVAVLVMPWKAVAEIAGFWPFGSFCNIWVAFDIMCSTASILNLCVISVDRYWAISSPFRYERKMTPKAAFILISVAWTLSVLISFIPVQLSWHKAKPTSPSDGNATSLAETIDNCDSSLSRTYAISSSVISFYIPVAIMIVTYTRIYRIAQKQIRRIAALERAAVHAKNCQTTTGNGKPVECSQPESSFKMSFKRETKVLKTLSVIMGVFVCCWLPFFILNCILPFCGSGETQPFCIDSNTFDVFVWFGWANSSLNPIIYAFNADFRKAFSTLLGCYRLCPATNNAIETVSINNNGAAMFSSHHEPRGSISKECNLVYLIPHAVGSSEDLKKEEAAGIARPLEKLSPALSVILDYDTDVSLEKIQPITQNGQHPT

With `Br.CCCN(CCC)C1CCc2ccc(O)cc2C1` (racemic) [7-OH-DPAT, (±)-7-Hydroxy-2-dipropylaminotetralin HBr], in [1], the “substitution for the discriminative stimulus effects of cocaine” value was “only partially substituted for cocaine”; the maximum cocaine-appropriate responding is 59% and ~ 60%. The “doses maintaining FR5 responding significantly greater than saline” value in [2] (FR5, i.v.) came out at 0.1 mg/kg/inj. Besides, in experiment [3], the EC50 is 45.2 nM. Also, the Ki in [4] stood at 110 nM. Besides, the “Sessions to Criteria (SEM), criterion ≥ 15 Injections per Session” value (“Sessions to Criteria (SEM) … per Session” below) in [5] (setting [17]) is given as 15.5 (1.5) sessions. Moreover, in [5] (0.32 mg/kg per injection IV), the “% Met, Both Criteria Met” value was 0% and the “% Met, criterion ≥ 15 Injections per Session” value (from here on “% Met … per Session”) is recorded as 28%. Besides, the “effect on locomotor activity” value in experiment [6] is “stimulated locomotor activity”. Moreover, in experiment [7] (PR), the “Total Injections” value is listed as 17.2 (5.4) and the “Total Responses” value was 690.5 (303.7).
For the molecule `COC(=O)[C@H]1[C@@H](OC(=O)c2ccccc2)C[C@@H]2CC[C@H]1N2C` [Cocaine, Cocaine HCl], the “FR5 responding when substituted for cocaine, relative to saline” value in [2] is recorded as “maintained dose-dependent levels of responding”. Also, in experiment [5] (setting [17]), the “Sessions to Criteria (SEM), Both Criteria Met” value was 11.0 (2.3) sessions; the “Sessions to Criteria (SEM) … per Session” value is 11.8 (2.4) sessions; the “Sessions to Criteria (SEM), criterion ≥ 70% Active Lever Selection” value is given as 10.4 (2.1) sessions. Moreover, in experiment [5] (0.32 mg/kg per injection IV), the “% Met, Both Criteria Met” value was determined as 71%; the “% Met … per Session” value is 86%; the “% Met, criterion ≥ 70% Active Lever Selection” value stood at 71%. For the same molecule, the “doses maintaining significantly more PR responding than saline” value in experiment [7] (PR, i.v.) was no less than 0.1 mg/kg/inj. Further, in experiment [7] (PR), the “Final Ratio Achieved” value was 172.0 (40.4) ^***, the “Total Injections” value was 31.0 (3.4) ^*** and the “Total Responses” value is 1895.0 (687.3) ^**. Also, in [7], the “PR responding when substituted for cocaine, relative to saline” value is “monotonic increases in responding”.
With `CCCN1C[C@@H](c2ccc(N)nc2)OC[C@@H]1C` [PF-592,379, 5-[(2R,5S)-5-methyl-4-propylmorpholin-2-yl]pyridin-2-amine], in experiment [1], the “responding at the largest doses tested, relative to baseline” value was ~ 15 % of baseline; the “substitution for the discriminative stimulus effects of cocaine” value is on record as “nearly exclusive responding on the saline-appropriate lever”; the maximum cocaine-appropriate responding was 3.5%. The “injections per session when substituted for cocaine” value in experiment [2] (FR5 or PR schedule, doses as large as 1.0 mg/kg) is less than 5 injections per session. Also, in experiment [2], the “FR5 responding when substituted for cocaine, relative to saline” value is reported as “no different than saline”. Further, in experiment [8], the “functional selectivity for D3 over D2 receptors” value is “at least 470 fold”. Moreover, the IC50 in experiment [9] is no less than 10000 nM. For the same molecule, the “binding selectivity for D3 over D2, D1, and D5 receptors” value in experiment [10] is on record as “at least 46 fold”. Further, the “Sessions to Criteria (SEM) … per Session” value in experiment [5] (setting [17]) was 3 (n.a.) sessions. Also, in experiment [5] (0.32 mg/kg per injection IV), the “% Met, Both Criteria Met” value was determined as 0%; the “% Met … per Session” value came to 14%; the “% Met, criterion ≥ 70% Active Lever Selection” value was 0%. For the same molecule, in experiment [5] (0.32 mg/kg/inj, FR1), the “drug earned during the first few acquisition sessions” value is given as “approximately 3 mg/kg” and the “injections per session by the end of the acquisition period” value is on record as less than 5 injections per session. Besides, the “effect on locomotor activity” value in [6] is given as “only a mild inhibition of locomotor activity”. Further, in experiment [11], the IC50 was no less than 10000 nM. Moreover, in experiment [12], the 50% inhibitory concentration (IC50) is no less than 10000 nM. The “agonist efficacy at the D3 receptor” value in experiment [13] is listed as “full agonist”. In [7] (PR), the “Final Ratio Achieved” value was 8.9 (2.1), the “Total Injections” value is on record as 1.3 (0.5) and the “Total Responses” value is on record as 18.5 (11.7). Besides, in [7], the “PR responding when substituted for cocaine, relative to saline” value is reported as “Low, saline-like levels of responding”.
`CCCN[C@H]1CCc2nc(N)sc2C1` [pramipexole]: in [14], the “in vitro radioligand binding selectivity for the D3 over D2” value was ~ 100 fold. The “range of doses over which the D3 or D2 receptor is selectively activated in vivo” value in [15] is recorded as no more than 30 fold.
Regarding `CN[C@@H]1Cc2cccc3[nH]c(=O)n(c23)C1` [sumanirole], the “in vitro radioligand binding selectivity for the D2 over D3 receptor” value in experiment [16] is recorded as ~ 200 fold. Besides, in experiment [15], the “range of doses over which the D3 or D2 receptor is selectively activated in vivo” value is on record as no more than 30 fold.
